Measured values: patent US20230016424A1, “HYBRID AMIDE DERIVATIVES OF AMPHOTERICIN B” (The Board of Trustees of the University of Illinois, priority 2019, published 2023)
≈ marks a conversion by molar mass, not a printed value.

Columns and labels:
C. tropicalis = assay: MIC; assay type: cell-based
[1] = test system: C. albicans SN250, C. albicans, C. krusei, C. glabrata, C. tropicalis, A. fumigatus 91, 1163, 1100; assay: Average MIC over the tested strains; assay type: cell-based; parameters: Avg. MIC of AmB amide: unit not given here; conditions: for Avg. MIC of AmB amide: value of the corresponding C16 amide of AmB, not of the C2’epi compound
C. krusei = assay: MIC; assay type: cell-based
A. fumigatus 1100 = assay: MIC; assay type: cell-based
C. albicans SN250 = assay: MIC; assay type: cell-based, Candida albicans
A. fumigatus 1163 = assay: MIC; assay type: cell-based
C. glabrata = assay: MIC; assay type: cell-based
C. albicans = assay: MIC; assay type: cell-based
A. fumigatus 91 = assay: MIC; assay type: cell-based
[2] = Tables 8 and 9, average over the 8 listed strains
[3] = Table 12, C16 amides of C2'epiAmB
[4] = Table 13, C16 amides of C2’epiAmB

Row | Compound | MIC C. tropicalis (C. tropicalis) | Average MIC [1, 2] | MIC C. krusei (C. krusei) | MIC A. fumigatus 1100 (A. fumigatus 1100) | MIC C. albicans SN250 (C. albicans SN250) | MIC A. fumigatus 1163 (A. fumigatus 1163) | MIC C. glabrata (C. glabrata) | MIC C. albicans (C. albicans) | Average MIC [1, 3] | Avg. MIC of AmB amide [1] | MIC A. fumigatus 91 (A. fumigatus 91) | Average MIC [1, 4]
1 | CC1C=CC=CC=CC=CC=CC=CC=CC(OC2OC(C)C(O)C(N)C2O)CC2OC(O)(CC(O)CC(O)C(O)CCC(O)CC(O)CC(=O)OC(C)C(C)C1O)CC(O)C2C(=O)NC1CCCC1 (centres unmarked) [AR5] | 500 µM (≈ 496 µg/mL) | 1063 µM | 500 µM (≈ 496 µg/mL) | 1500 µM (≈ 1490 µg/mL) | 500 µM (≈ 496 µg/mL) |  |  |  |  |  |  | 
2 | CC1C=CC=CC=CC=CC=CC=CC=CC(OC2OC(C)C(O)C(N)C2O)CC2OC(O)(CC(O)CC(O)C(O)CCC(O)CC(O)CC(=O)OC(C)C(C)C1O)CC(O)C2C(=O)NC1CCCCC1 (centres unmarked) [AR6] | 500 µM (≈ 503 µg/mL) | 891 µM |  | 1500 µM (≈ 1510 µg/mL) | 500 µM (≈ 503 µg/mL) | 1000 µM (≈ 1010 µg/mL) | 750 µM (≈ 754 µg/mL) |  |  |  |  | 
3 | CC1C=CC=CC=CC=CC=CC=CC=CC(OC2OC(C)C(O)C(N)C2O)CC2OC(O)(CC(O)CC(O)C(O)CCC(O)CC(O)CC(=O)OC(C)C(C)C1O)CC(O)C2C(=O)NC1CCCCCC1 (centres unmarked) [AR7] |  | 1469 µM | 1000 µM (≈ 1020 µg/mL) |  |  |  | 2000 µM (≈ 2040 µg/mL) |  |  |  |  | 
4 | CC1C=CC=CC=CC=CC=CC=CC=CC(OC2OC(C)C(O)C(N)C2O)CC2OC(O)(CC(O)CC(O)C(O)CCC(O)CC(O)CC(=O)OC(C)C(C)C1O)CC(O)C2C(=O)NC1CCCCCCCCCCC1 (centres unmarked) [AR12] | 3000 µM (≈ 3270 µg/mL) | 5000 µM | 8000 µM (≈ 8720 µg/mL) | 8000 µM (≈ 8720 µg/mL) |  |  |  | 2000 µM (≈ 2180 µg/mL) |  |  |  | 
5 | CC1C=CC=CC=CC=CC=CC=CC=CC(OC2OC(C)C(O)C(N)C2O)CC2OC(O)(CC(O)CC(O)C(O)CCC(O)CC(O)CC(=O)OC(C)C(C)C1O)CC(O)C2C(=O)NC1CCCCCCCCC1 (centres unmarked) [AR-10] |  | 2250 µM | 1000 µM (≈ 1060 µg/mL) |  | 1000 µM (≈ 1060 µg/mL) |  | 2000 µM (≈ 2120 µg/mL) |  |  |  |  | 
6 | CC1C=CC=CC=CC=CC=CC=CC=CC(OC2OC(C)C(O)C(N)C2O)CC2OC(O)(CC(O)CC(O)C(O)CCC(O)CC(O)CC(=O)OC(C)C(C)C1O)CC(O)C2C(=O)NCCC#N (centres unmarked) [BO] | 500 µM (≈ 488 µg/mL) |  |  |  |  | 1500 µM (≈ 1460 µg/mL) |  |  | 1.188 µM | 0.42 |  | 
7 | CC1C=CC=CC=CC=CC=CC=CC=CC(OC2OC(C)C(O)C(N)C2O)CC2OC(O)(CC(O)CC(O)C(O)CCC(O)CC(O)CC(=O)OC(C)C(C)C1O)CC(O)C2C(=O)NCC(F)F (centres unmarked) [BQ] |  |  |  |  |  |  |  |  | 1.625 µM | 0.30 | 4000 µM (≈ 3950 µg/mL) | 1625 µM
8 | CC1C=CC=CC=CC=CC=CC=CC=CC(OC2OC(C)C(O)C(N)C2O)CC2OC(O)(CC(O)CC(O)C(O)CCC(O)CC(O)CC(=O)OC(C)C(C)C1O)CC(O)C2C(=O)NC1COCC1O (centres unmarked) [BR] | 500 µM (≈ 505 µg/mL) |  |  |  |  |  |  |  | 1.688 µM | 0.38 |  | 1250 µM
